Data: patent publication US20040191168A1, “Tumor cell killing by cell cycle checkpoint abrogation combined with Inhibition of the classical mitogen activated protein (map) kinase pathway” (priority 2000, published 2004)
Values joined by “and” are separate entries in the source; they are usually repeats but may differ in a detail not shown here. Identical values can stand only once.

What was measured:
U937 cells [1] = experiment: Morphological assessment of apoptosis (Wright-Giemsa cytospins) in U937 cells; assay type: cell-based, human; conditions: U937 cells; for apoptosis (cell death): UCN-01 150 nM, FIG. 1A
Description: Experimental Format. All of the experiments were performed using logarithmically growing cells (3-5×10^5 cells/ml). Cell suspensions were placed in sterile 25 cm^2 T-flasks (Corning, Corning, N.Y.) and incubated with MEK or PKC inhibitors for 30 min at 37° C. At the end of this period, UCN-01 (or in some cases, caffeine) was added to the suspension, and the flasks were placed in 37° C./5% CO2 incubator at various intervals, generally 18 h. In some studies, the p38 MAP kinase inhibitor SB203580 was added concurrently with MEK inhibitors. After drug treatment, cells were harvested and subjected to further analysis as described below.
Analysis of Apoptosis. […] For each condition, 5 to 10 randomly selected fields/condition were evaluated, encompassing at least 500 cells (Vrana and Grant, 2001). To confirm the results of morphological analysis, in some cases cells were also evaluated by TUNEL staining (Gorczyca et al., 1993) and assessment of oligonucleosomal DNA fragmentation of total DNA. DNA fragmentation was analyzed by 1.8% agarose gel electrophoresis as described previously (Jarvis et al., 1994). For TUNEL staining, cytocentrifuge preparations were obtained and fixed with 4% formaldehyde. The slides were treated with acetic acid/ethanol (1:2), stained with terminal transferase reaction mixture containing terminal transferase reaction buffer, 0.25 units/ ml terminal transferase, 2.5 mM CoCl2, and 2 pmol fluorescein-12-dUTP (Boehringer Mannheim, Indianapolis, Ind.), and visualized using fluorescence microscopy.

U937 cells [2] = experiment: S-phase content by BrdUrd incorporation in U937 cells; assay type: cell-based, human; conditions: 12 and 18 h, UCN-01 150 nM, PD184352 10 μM, FIG. 3B
Description: Cell Cycle Analysis and S-phase Content. Cells (2×10^6) were pelleted at 4° C., resuspended, fixed at 4° C. with 67% ethanol overnight, and treated on ice with a propidium iodide solution containing 3.8 mM Na citrate, 0.5 mg/ml RNase A (Sigma Chemical Co.), and 0.01 mg/ml propidium iodide (Sigma Chemical Co.) for 3 h. Cell cycle analysis was performed by flow cytometry using Verity Winlist software (Topsham, Me.). Incorporation of BrdUrd was monitored to evaluate S-phase content. For each condition, 2 3 10 6 cells (cell density 5 5 3 10 5 /ml) were incubated with […] BrdUrd for 30 min at 37° C. After washing twice with 1% BSA/PBS, the cells were resuspended in 70% ethanol and fixed for 30 min on ice. The BrdUrd-labeled cells were denatured and nuclei released by incubation with 2 N HCl/0.5% Triton X-100 for 30 min at room temperature. After centrifugation, the pellet was resuspended in 0.1 M […] (pH 8.5) to neutralize the acid. […] After washing once with 0.5% Tween 20/1% BSA/PBS, the cells were resuspended in PBS containing […] propiditun iodide and analyzed by flow cytometry. The percentage of S-phase cells was determined by measuring BrdUrd FITC-positive part in a dot plot of FL-3 (red fluorescence) against FL-1 (green fluorescence).

MAPK/ERK = experiment: p42 MAPK immune complex kinase assay in carcinoma cells; assay type: cell-based, human; conditions: MCF7, MDA-MB-231, T47D and DU145 cells; UCN-01 150 nM; MEK1/2 inhibitors (PD98059 25 μM, PD184352 10 μM, U0126 5 μM) given with UCN-01
Description: Immunoprecipitations from Lysates. Fifty microliters of Protein A agarose (Ag) slurry (25 μl bead volume) was washed twice with 1 ml PBS containing 0.1% (v/v) Tween 20, and resuspended in 0.1 ml of the same buffer. Antibodies (2 μg, 20 μl), serum (20 μl) were added to each tube and incubated (3 h, 4° C.). For pre-conjugated antibodies,10 μl of slurry (4 μg antibody) was used. Clarified equal aliquots of lysates (0.25 ml, 100 μg total protein) were mixed with Ag-conjugated antibodies in duplicate using gentle agitation (2.5 h, 4° C.). Ag-antibody-antigen complexes were recovered by centrifugation, the supernatant discarded, and washed (10 min) sequentially with 0.5 ml buffer A (twice), PBS and buffer B [25 mM Hepes, pH 7.4, 0.1 mM Na3VO4].
Assay of p42^MAPK activity. Immunoprecipitates were incubated (final volume 50 μl ) with 50 μl of buffer B containing 0.2 mM [γ-^32P]ATP (5000 cpm/pmol), 1 μM Microcystin-LR, 0.5 mg/ml myelin basic protein NP), which initiated reactions at time=0. After 20 min., 40 μl of the reaction mixtures were spotted onto a 2 cm circle of P81 paper (Whatman, Maidstone, England) and immediately placed into 180 mM phosphoric acid. Papers were washed four times (10 min each) with phosphoric acid, and once with acetone, and ^32P-incorporation into MBP was quantified by liquid scintillation spectroscopy.

MCF7 cells [3] = conditions: MCF7, 24 h; with 150 nM UCN-01; PD184352 10 μM, U0126 5 μM; FIG. 8B
Description: Terminal Uridyl-Nucleotide End Labeling (TUNEL) for apoptosis. […] Cells were isolated 24 h after irradiation by trypsinizationi followed by centrifugation onto glass slides (cytospin). Terminal Uridyl-Nucleotide End Labeling (TUNEL) was performed on these cells as described previously [Wang et al., 1999; Park et al., 1999]. Randomly selected fields of fixed cells (150 cells per field, n=5 per slide) were counted initially using propidium iodide counter stain, followed by examination and counting of TUNEL positive staining cells of the same field under FITC/fluorescence light.

MCF7 cells [4] = experiment: Colony forming (clonogenic) assay in MCF7 cells; assay type: cell-based, human; conditions: 25 μM PD98059, 150 nM UCN-01, replated 48 h, ± SEM
Description: (§1) Colony forming (clonogenic) assay. Cells were plated 36 h prior to experimentation. Cells were pre-treated with MEK1/2 inhibitor as indicated, 2 h prior to exposure. Cells were irradiated (2 Gy). After a further 48 h, cells were isolated by tryptic digestion and single cell suspensions plated on Linbro® plates at densities of 500 cells/well and 1000 cells/well. Colony formation was defined as a colony of 50 cells or greater, 10 days after plating.

MDA-MB-231 cells = experiment: Colony forming (clonogenic) assay in MDA-MB-231 cells; assay type: cell-based, human; conditions: MDA-MB-231 (MDA), 25 μM PD98059, 150 nM UCN-01, replated 48 h, ± SEM
Description: as §1

Row | Structure (SMILES) | Apoptotic cells (%) (U937 cells [1]; 18 h, PD184352 10 μM, GFX 1 μM, safingol 2 μM, mean ± SD) | apoptosis (cell death) (U937 cells [1]; 18 h, PD184352 10 μM) [%] | number of BrdUrd-positive (S-phase) cells (U937 cells [2]) | MAPK/ERK activity (immune complex kinase assay) (MAPK/ERK) | apoptosis in combination with UCN-01 (MCF7 cells [3]) | percentage of apoptotic cells (U937 cells [1]; 24 hr, 100 nM UCN-01, 10 μM LY294002, FIG. 14) | clonogenic survival (colonies, normalized to control unirradiated cells = 100%) (MCF7 cells [4]; MCF7, 2 Gy) [%] | clonogenic survival (colonies, normalized to control unirradiated cells = 100%) (MCF7 cells [4]; MCF7, mock irradiated) [%] | clonogenic survival (colonies, normalized to control unirradiated cells = 100%) (MDA-MB-231 cells; 2 Gy) [%] | clonogenic survival (colonies, normalized to control unirradiated cells = 100%) (MDA-MB-231 cells; mock irradiated) [%]
1 | O=C(NOCC1CC1)c1ccc(F)c(F)c1Nc1ccc(I)cc1Cl [PD184352] | 1.8 ± 0.1% and 2.1 ± 0.1% | 10 | modest decline | opposed | enhanced apoptosis |  |  |  |  | 
2 | CN[C@@H]1C[C@H]2O[C@@](C)([C@@H]1OC)n1c3ccccc3c3c4c(c5c6ccccc6n2c5c31)C(=O)N[C@H]4O [UCN-01, 7-hydroxystaurosporine] |  | 10 | no effect | activation of MAPK/ERK was observed |  | about 20% | 44 ± 3 | 69 ± 6 | 55 ± 2 | 97 ± 3
